Measured values taken from paper PMC12337661, “PIEZO1 mechanical insensitivity in generalized lymphatic dysplasia with the potential for pharmacological rescue” (iScience, 2025).
Several values for one entry are separate records, joined by “and”; a condition that tells them apart may be missing. Equal entries are not always repeated.

Experiments:
Assay type in all cases: cell-based
[1] = tested on: T-REx-293 cells, empty vector (vector control); assay: Intracellular Ca2+ measurement (fura-2), T-REx-293 cells transiently transfected with empty vector; details: 1 μM
Description: HEK 293 cell line was transiently transfected at 90% confluence using Lipofectamine 2000 (Invitrogen) in OptiMEM (Gibco). Briefly: 500 ng endotoxin-free DNA per 100μL OptiMEM was prepared alongside 3μL Lipofectamine 2000 per 100μL OptiMEM (Gibco). Both were incubated for 5 min and then mixed, and then incubated at room temperature (21°C–24°C) for 20–30 min. Finally, the transfection mix was gently added dropwise to the cells and the cells were placed in a humidified incubator at 37°C supplied with 5% CO2 for 5 h. Medium was replaced afterward, and cells were used for experimentation 48 h after transfection.
For intracellular Ca^2+ assays, cells were plated at 80–90% confluence in 96-well plates 24 h prior to recordings (6–8 × 10^4 cells per well). […] Cells were washed with SBS and incubated at room temperature for 20 min prior to recordings. Equal volumes of 2x concentrated compounds were injected to test for acute channel activation. Pre-incubation with compounds occurred during the 20 min prior to recordings. To expose cell membranes to hypo-osmolality, an equal volume of hypotonic SBS (containing only 35 mM NaCl) was injected onto the cells. Measurements were made on a fluorescence plate reader (Flexstation III, Molecular Devices) at room temperature (21 ± 2°C). Fura-2 was excited at 340 nm and 380 nm and emitted light collected at 510 nm, with measurements shown as the change in fluorescence (F) ratio (ΔF340/380).
KC41 (Dooku1) was prepared as described.[28] All purchased chemicals and solvents were used without further purification unless otherwise stated. All compounds were at least 95% pure by 1H NMR. 1H Nuclear Magnetic Resonance spectra were recorded at 500 MHz using a Bruker DRX 500 instrument or at 400 MHz using a Bruker DPX 400. 1H spectra are referenced based on the residual proton in the solvent (e.g., the CHCl3, 0.01% in 99.99% CDCl3). Coupling constants (J) are reported to the nearest 0.1 Hz. 13C NMR spectra were recorded at 125 MHz on 500 MHz spectrometers or at 100 MHz on 400 MHz spectrometers. LC-MS was performed on a Bruker Daltronics running a gradient of increasing acetonitrile (5–95%) in H2O both containing 0.1% formic acid at 1 mL.min^−1, on a short path C18 reverse phase column, detecting compounds with both a diode array detector and a Bruker mass spectrum analyser. HRMS was performed on a Bruker Daltonics micrOTOF using positive electrospray ionisation (ES+). Automated column chromatograph was carried out using a Biotage Isolera Four, using either Sfär Silica D or KP-Silica cartridges. HPLC was performed on an Agilent 1290 Infinity Series equipped with a UV detector and Hyperprep C18 reverse phase column. Key to NMR abbreviations: s (singlet), br s (broad singlet) d (doublet), dd (doublet of doublets), ddd (doublet of doublets of doublets), t (triplet), dt (doublet of triples), q (quartet), m (multiplet), ap. t (apparent triplet). For experiments, Yoda1 and its analogues were prepared as 10 mM stock solutions in 100% dimethyl sulfoxide (DMSO) before serial dilution in DMSO and final dilution in aqueous solution. Cells were exposed to 0.1% DMSO for all concentrations of the compounds from 0 to 10 μM.

[2] = molecular target: T1, R2351Q mPIEZO1 (Mus musculus, UniProt E2JF22, R2351Q); assay: Outside-out patch recording with pressure pulses
T1 construct: expressed in transfected cells
Description: (§1) Ionic currents were recorded through outside-out patches from cells using standard patch-clamp techniques in voltage-clamp mode. Patch pipettes were fire-polished and had resistance of 4–7 MΩ when filled with pipette solution. Ionic solution of composition (mM) NaCl 140, HEPES 10 and EGTA 5 (titrated to pH 7.4 using NaOH) was used in both the pipette and bath. Recordings were at a constant holding potential of −80 mV. 200-ms pressure steps were applied to the patch pipette with an interval of 12 s using High Speed Pressure Clamp HSPC-1 System (ALA Scientific Instruments, USA). All recordings were made with an Axopatch-200B amplifier (Axon Instruments, Inc., USA) equipped with Digidata 1550B and pClamp (v10.6) software (Molecular Devices, USA) at room temperature (21 ± 2°C). Currents were filtered at 2–5 kHz and digitally sampled at 5–20 kHz.

[3] = molecular target: T2, I2286T mPIEZO1 (Mus musculus, UniProt E2JF22, I2286T); assay: Outside-out patch recording with pressure pulses; details: 5 μM; for current (example trace): 75 mmHg pulses
T2 construct: expressed in transfected cells
Description: as §1

[4] = molecular target: T3, G1994D mPIEZO1 (Mus musculus, UniProt E2JF22, G1994D); assay: Outside-out patch recording with pressure pulses; details: for Currents at given pressure / Pressure-response, individual cells (Figure 5f) / Mean (pressure-response, Figure 5f): G1994D + Yoda1; for Pressure-response, individual cells (Figure 5f): cell1-cell10; for Mean (pressure-response, Figure 5f): mean of cells 1-10;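 as to Mean (pressure-response, Figure 5f): peak current normalised to each patch's maximum peak current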;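 as to Pressure-response, individual cells (Figure 5f): peak current normalised to each patch's maximum peak current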
T3 construct: expressed in transfected cells
Description: as §1

T3 sequence (E2JF22 whole entry G1994D): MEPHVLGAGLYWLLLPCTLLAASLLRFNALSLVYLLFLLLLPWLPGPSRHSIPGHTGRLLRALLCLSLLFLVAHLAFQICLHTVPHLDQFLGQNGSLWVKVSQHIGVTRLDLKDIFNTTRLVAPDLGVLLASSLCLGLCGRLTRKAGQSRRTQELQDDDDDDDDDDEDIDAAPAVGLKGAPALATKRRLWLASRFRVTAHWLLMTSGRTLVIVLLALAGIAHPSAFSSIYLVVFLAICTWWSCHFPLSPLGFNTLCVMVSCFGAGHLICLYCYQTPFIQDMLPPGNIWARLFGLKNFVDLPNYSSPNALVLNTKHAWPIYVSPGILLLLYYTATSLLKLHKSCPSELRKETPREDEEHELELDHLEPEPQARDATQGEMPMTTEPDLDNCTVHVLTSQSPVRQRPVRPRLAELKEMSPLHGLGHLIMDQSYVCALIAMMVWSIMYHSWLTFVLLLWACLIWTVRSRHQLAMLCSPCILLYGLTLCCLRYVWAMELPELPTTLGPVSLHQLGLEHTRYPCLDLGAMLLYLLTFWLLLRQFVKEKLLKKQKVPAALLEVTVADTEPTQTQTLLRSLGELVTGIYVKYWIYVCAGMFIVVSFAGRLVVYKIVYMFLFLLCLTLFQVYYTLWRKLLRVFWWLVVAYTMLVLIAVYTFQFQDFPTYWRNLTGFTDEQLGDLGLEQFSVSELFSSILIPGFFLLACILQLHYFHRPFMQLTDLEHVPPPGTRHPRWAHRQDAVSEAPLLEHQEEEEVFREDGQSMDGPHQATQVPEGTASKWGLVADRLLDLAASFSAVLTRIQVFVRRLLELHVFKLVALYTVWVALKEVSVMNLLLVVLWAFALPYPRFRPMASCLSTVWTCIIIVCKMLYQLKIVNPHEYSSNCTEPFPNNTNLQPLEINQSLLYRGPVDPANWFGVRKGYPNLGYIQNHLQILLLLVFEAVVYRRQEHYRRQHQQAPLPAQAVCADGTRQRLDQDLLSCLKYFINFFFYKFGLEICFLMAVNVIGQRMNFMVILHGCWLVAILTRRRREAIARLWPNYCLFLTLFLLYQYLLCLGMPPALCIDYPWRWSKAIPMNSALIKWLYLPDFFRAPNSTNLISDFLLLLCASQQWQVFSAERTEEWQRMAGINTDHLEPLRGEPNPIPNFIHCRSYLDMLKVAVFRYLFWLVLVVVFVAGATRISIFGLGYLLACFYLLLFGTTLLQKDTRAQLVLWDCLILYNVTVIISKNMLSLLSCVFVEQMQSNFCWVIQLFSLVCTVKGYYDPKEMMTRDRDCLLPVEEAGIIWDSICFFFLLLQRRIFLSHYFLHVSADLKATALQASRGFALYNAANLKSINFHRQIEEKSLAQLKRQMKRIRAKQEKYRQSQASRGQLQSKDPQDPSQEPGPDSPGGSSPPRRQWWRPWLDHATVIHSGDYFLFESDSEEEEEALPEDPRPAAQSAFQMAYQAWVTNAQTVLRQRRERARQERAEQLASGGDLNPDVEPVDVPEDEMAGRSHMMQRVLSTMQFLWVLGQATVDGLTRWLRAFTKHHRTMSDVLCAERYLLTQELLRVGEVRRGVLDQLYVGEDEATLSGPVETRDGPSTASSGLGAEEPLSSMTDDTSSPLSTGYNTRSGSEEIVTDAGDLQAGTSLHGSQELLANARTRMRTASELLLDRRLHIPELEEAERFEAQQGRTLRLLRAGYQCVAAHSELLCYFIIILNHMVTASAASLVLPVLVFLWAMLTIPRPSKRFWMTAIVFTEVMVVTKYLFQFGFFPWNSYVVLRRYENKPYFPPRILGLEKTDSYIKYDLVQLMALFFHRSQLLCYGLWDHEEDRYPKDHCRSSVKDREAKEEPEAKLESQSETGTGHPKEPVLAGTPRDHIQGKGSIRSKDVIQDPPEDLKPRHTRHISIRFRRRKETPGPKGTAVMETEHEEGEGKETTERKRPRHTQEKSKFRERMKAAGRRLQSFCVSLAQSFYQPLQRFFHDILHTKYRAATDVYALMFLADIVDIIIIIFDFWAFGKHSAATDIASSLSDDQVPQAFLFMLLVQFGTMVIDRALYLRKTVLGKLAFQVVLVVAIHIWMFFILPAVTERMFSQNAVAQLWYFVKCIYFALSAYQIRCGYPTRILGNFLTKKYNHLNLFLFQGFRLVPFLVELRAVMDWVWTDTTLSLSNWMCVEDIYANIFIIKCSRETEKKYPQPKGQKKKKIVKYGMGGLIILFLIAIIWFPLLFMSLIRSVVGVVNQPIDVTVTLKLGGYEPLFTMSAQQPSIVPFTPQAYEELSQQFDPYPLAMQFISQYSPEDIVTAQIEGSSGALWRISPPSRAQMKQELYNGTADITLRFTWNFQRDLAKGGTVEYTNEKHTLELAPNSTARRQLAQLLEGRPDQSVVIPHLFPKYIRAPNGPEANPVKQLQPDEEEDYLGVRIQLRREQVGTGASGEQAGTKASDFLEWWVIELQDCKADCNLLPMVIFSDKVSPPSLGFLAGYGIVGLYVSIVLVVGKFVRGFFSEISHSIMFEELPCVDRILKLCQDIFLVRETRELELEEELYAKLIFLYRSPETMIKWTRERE
T1 sequence (E2JF22 whole entry R2351Q): as the sequence (E2JF22 whole entry G1994D) above, with D1994G, R2351Q counted along it
T2 sequence (E2JF22 whole entry I2286T): as the sequence (E2JF22 whole entry G1994D) above, with D1994G, I2286T counted along it

Compound: Clc1cccc(Cl)c1CSc1nnc(-c2cnccn2)s1 [Yoda1]
- fluorescence (ΔFratio) ([1]; time 0 s): 0.00237
- fluorescence (ΔFratio) ([1]; time 5 s): -0.00988
- fluorescence (ΔFratio) ([1]; time 10 s): 0.01607
- fluorescence (ΔFratio) ([1]; time 15 s): 0.00395
- fluorescence (ΔFratio) ([1]; time 20 s): -3.91E-04
- fluorescence (ΔFratio) ([1]; time 25 s): -0.01211
- fluorescence (ΔFratio) ([1]; time 30 s): -0.08353
- fluorescence (ΔFratio) ([1]; time 35 s): 0.00717
- fluorescence (ΔFratio) ([1]; time 40 s): 0.03324
- fluorescence (ΔFratio) ([1]; time 45 s): 0.05289
- fluorescence (ΔFratio) ([1]; time 50 s): 0.03768
- fluorescence (ΔFratio) ([1]; time 55 s): 0.03322
- fluorescence (ΔFratio) ([1]; time 60 s): 0.03103
- fluorescence (ΔFratio) ([1]; time 65 s): 0.02272
- fluorescence (ΔFratio) ([1]; time 70 s): 0.00255
- fluorescence (ΔFratio) ([1]; time 75 s): 0.00791
- fluorescence (ΔFratio) ([1]; time 80 s): -0.00287
- fluorescence (ΔFratio) ([1]; time 85 s): 0.01077
- fluorescence (ΔFratio) ([1]; time 90 s): -0.01792
- fluorescence (ΔFratio) ([1]; time 95 s): -0.01119
- fluorescence (ΔFratio) ([1]; time 100 s): 0.01819
- fluorescence (ΔFratio) ([1]; time 105 s): 8.16E-04
- fluorescence (ΔFratio) ([1]; time 110 s): 0.00558
- fluorescence (ΔFratio) ([1]; time 115 s): 0.00369
- fluorescence (ΔFratio) ([1]; time 120 s): 7.66E-04
- fluorescence (ΔFratio) ([1]; time 125 s): 0.00667
- mechanical activation in the presence of the compound ([2]; 5 μM, 75 mmHg pressure pulses): robust mechanical activation of the variant channels
- currents at given condition, individual cells (cell1-cell7) ([2]; R2351Q, Yoda1, Figure 4e): -87.925 pA and -24.5178 pA and -36.1129 pA and -20.7822 pA and -20.109 pA and -65.4339 pA and -114.364 pA
- currents at given condition, Mean ([2]; R2351Q, Yoda1, mean of 7 cells, Figure 4e): -52.7493 pA
- mechanical activation in the presence of the compound ([3]; 75 mmHg pressure pulses): pressure-evoked current now occurred
- current (example trace) ([3]; time 30.5 ms): -0.41 pA
- current (example trace) ([3]; time 30.5002 ms): -0.2269 pA
- current (example trace) ([3]; time 30.5004 ms): -0.5932 pA
- maximum amplitude of current evoked by the pressure pulse, Mean ([3]; 75 mmHg, -80 mV, n = 7): -80.8694 pA
- Currents at given pressure ([4]; 0 mmHg, time 200.1 ms): -1.831 pA
- Currents at given pressure ([4]; 0 mmHg, time 200.15 ms): 0.2743 pA
- Currents at given pressure ([4]; 0 mmHg, time 200.2 ms): -1.526 pA
- Currents at given pressure ([4]; 15 mmHg, time 200.1 ms): 1.03 pA
- Currents at given pressure ([4]; 15 mmHg, time 200.15 ms): -0.5571 pA
- Currents at given pressure ([4]; 15 mmHg, time 200.2 ms): -0.1298 pA
- Currents at given pressure ([4]; 30 mmHg, time 200.1 ms): -11.9666 pA
- Currents at given pressure ([4]; 30 mmHg, time 200.15 ms): -9.769 pA
- Currents at given pressure ([4]; 30 mmHg, time 200.2 ms): -5.161 pA
- Currents at given pressure ([4]; 45 mmHg, time 200.1 ms): -2.0839 pA
- Currents at given pressure ([4]; 45 mmHg, time 200.15 ms): -0.6801 pA
- Currents at given pressure ([4]; 45 mmHg, time 200.2 ms): -0.497 pA
- Currents at given pressure ([4]; 60 mmHg, time 200.1 ms): 1.1543 pA
- Currents at given pressure ([4]; 60 mmHg, time 200.15 ms): -0.9209 pA
- Currents at given pressure ([4]; 60 mmHg, time 200.2 ms): -0.8599 pA
- Currents at given pressure ([4]; 75 mmHg, time 200.1 ms): -0.6364 pA
- Currents at given pressure ([4]; 75 mmHg, time 200.15 ms): 0.6148 pA
- Currents at given pressure ([4]; 75 mmHg, time 200.2 ms): 0.06549 pA
- Currents at given pressure ([4]; 90 mmHg, time 200.1 ms): -1.92 pA
- Currents at given pressure ([4]; 90 mmHg, time 200.15 ms): -2.409 pA
- Currents at given pressure ([4]; 90 mmHg, time 200.2 ms): -0.1504 pA
- Currents at given pressure ([4]; 105 mmHg, time 200.1 ms): -0.4419 pA
- Currents at given pressure ([4]; 105 mmHg, time 200.15 ms): -1.449 pA
- Currents at given pressure ([4]; 105 mmHg, time 200.2 ms): 0.2905 pA
- Pressure-response, individual cells (Figure 5f) ([4]; pressure 0 mmHg): 1.59E-17 and -8.38E-17 and 0 (4×) and -2.96E-17 and -2.69E-17 and -3.91E-17 and 3.74E-17
- Mean (pressure-response, Figure 5f) ([4]; pressure 0 mmHg): -1.26E-17
- Pressure-response, individual cells (Figure 5f) ([4]; pressure 15 mmHg): 0.08197 and 0.01125 and 0.01265 and 0.01555 and 0.01655 and 0.00717 and 0.01084 and 0.05939 and 0.00309 and 0.1064
- Mean (pressure-response, Figure 5f) ([4]; pressure 15 mmHg): 0.03249
- Pressure-response, individual cells (Figure 5f) ([4]; pressure 30 mmHg): 0.03806 and -0.00981 and 0.03807 and 0.05062 and 0.03544 and 0.00903 and 0.00593 and 0.02358 and 0.08822 and 0.1193
- Mean (pressure-response, Figure 5f) ([4]; pressure 30 mmHg): 0.03984
- pressure for 50% activation (P50), Boltzmann mid-point ([4]; in 5 μM Yoda1, -80 mV): 64.0 mmHg
